# What was measured:
# recombinant ARCβ = target: T1, recombinant ARCβ (Strongylocentrotus purpuratus, UniProt A5HNF4); test: radiometric TLC of […]cADPR formation; type: biochemical; settings: 16 nM substrate; labelled compound; 1 h, 20 °C; pH varied, acidic pH preferred
# T1 construct: gene ARCB
# recombinant ARCα = target: T2, recombinant ARCα (Strongylocentrotus purpuratus, UniProt A5HNF3); test: radiometric TLC of […]cADPR formation; type: biochemical; settings: 16 nM substrate; labelled compound; 1 h, 20 °C; pH varied, acidic pH preferred
# T2 construct: gene ARCA
# T2 sequence (A5HNF3 entry or part of it): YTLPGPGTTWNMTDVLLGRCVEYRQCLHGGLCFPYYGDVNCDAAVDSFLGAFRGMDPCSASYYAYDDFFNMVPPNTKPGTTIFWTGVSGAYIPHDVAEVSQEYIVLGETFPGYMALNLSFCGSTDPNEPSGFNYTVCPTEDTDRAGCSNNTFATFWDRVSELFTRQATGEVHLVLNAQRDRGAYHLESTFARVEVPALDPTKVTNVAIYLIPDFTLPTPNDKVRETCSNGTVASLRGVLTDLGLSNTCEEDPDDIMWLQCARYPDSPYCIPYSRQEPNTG
# T1 sequence (A5HNF4 entry or part of it): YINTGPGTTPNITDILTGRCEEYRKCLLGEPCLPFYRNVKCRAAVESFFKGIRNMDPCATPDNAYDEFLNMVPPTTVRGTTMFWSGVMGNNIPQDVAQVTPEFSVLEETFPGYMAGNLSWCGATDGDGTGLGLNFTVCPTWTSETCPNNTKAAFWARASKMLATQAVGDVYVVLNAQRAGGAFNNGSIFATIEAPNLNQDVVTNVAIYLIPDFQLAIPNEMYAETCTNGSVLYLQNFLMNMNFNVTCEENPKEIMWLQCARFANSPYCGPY
Compound,radiometric TLC of [32P]cADPR formation (recombinant ARCβ),radiometric TLC of [32P]cADPR formation (recombinant ARCα)
N=c1c2ncn3c2ncn1[C@@H]1O[C@H](COP(=O)(O)OP(=O)(O)OC[C@H]2O[C@@H]3[C@H](O)[C@@H]2O)[C@@H](O)[C@H]1O [cADPR],pH dependency of recombinant ARCα or ARCβ is shown,recombinant (Figure 3D) and endogenous (Figure 3C) sea urchin ARCs preferentially synthesize cADPR
NC(=O)c1ccc[n+]([C@@H]2O[C@H](COP(=O)([O-])OP(=O)(O)OC[C@H]3O[C@@H](n4cnc5c(N)ncnc54)[C@H](O)[C@@H]3O)[C@@H](O)[C@H]2O)c1 [β-NAD^+],pH dependency of recombinant ARCα or ARCβ is shown,recombinant (Figure 3D) and endogenous (Figure 3C) sea urchin ARCs preferentially synthesize cADPR

# Source: publication PMC2581485, “Ca^2+ Signaling Occurs via Second Messenger Release from Intraorganelle Synthesis Sites” (Current Biology, 2008)
